From ChEMBL document CHEMBL5226379, “Hypouricemic Actions of the Pericarp of Mangosteen in Vitro and in Vivo” (J Nat Prod, 2023)
Active and inactive are the calls of the source. No cut-off for these calls is given here.

Key:
Rattus norvegicus [1] = experiment: (§1) Anti-hyperuricemic activity against potassium oxonate-induced hyperuricemic Sprague-Dawley rat model assessed as urinary creatinine level at 1 mg/kg, po pre-administered via gavage twice daily for 5 times followed by potassium oxonate injection for 1 hrs prior to last dose and measured after 3 hrs; assay type: functional; settings: time 123 hrs
Mus musculus [2] = experiment: Hypouricemic activity in potassium oxonate-induced hyperuricemic Kunming mouse model assessed as decrease in serum XOD level at 1 to 4 mg/kg, IG pre-administered via gavage twice daily for 5 times followed by potassium oxonate injection for 1 hrs prior to last dose; assay type: functional, organism-based; settings: dose 1-4 mg/kg, time 5.0 day
[3] = Acute toxicity in mouse assessed as behavioral changes at 50 g/Kg, IG measured for 14 days; settings: in vivo, po, 50000 mg/kg, 336 h, time 14 day
Rattus norvegicus [4] = experiment: as §1, with “clearance of urate measured per body surface area of 0.0311 m2” for “urinary creatinine level”; assay type: functional; settings: time 123 hrs
Rattus norvegicus [5] = experiment: (§2) Anti-hyperuricemic activity against potassium oxonate-induced hyperuricemic Sprague-Dawley rat model assessed as serum creatinine level at 4 mg/kg, po pre-administered via gavage twice daily for 5 times followed by potassium oxonate injection for 1 hrs prior to last dose and measured after 3 hrs; assay type: functional; settings: time 123 hrs
Mus musculus [6] = experiment: Hypouricemic activity in potassium oxonate-induced hyperuricemic Kunming mouse model assessed as decrease in serum uric acid level pre-administered intragastrically via gavage twice daily for 5 times followed by potassium oxonate injection for 1 hrs prior to last dose by phosphotungstic acid method; assay type: functional, organism-based; settings: dose 1-4 mg/kg, time 5.0 day
Mus musculus [7] = experiment: Hypouricemic activity in potassium oxonate-induced hyperuricemic Kunming mouse model assessed as decrease in serum uric acid level at 4 mg/kg, IG pre-administered with potassium oxonate for one hour followed by compound treatment and measured after 2 hrs by phosphotungstic acid method relative to control; assay type: functional; design: scale not given: the % may be the effect or the level left
Rattus norvegicus [8] = experiment: (§3) Anti-hyperuricemic activity against potassium oxonate-induced hyperuricemic Sprague-Dawley rat model assessed as urinary urate level at 4 mg/kg, po pre-administered via gavage twice daily for 5 times followed by potassium oxonate injection for 1 hrs prior to last dose and measured after 3 hrs; assay type: functional; settings: time 123 hrs
Rattus norvegicus [9] = experiment: Anti-hyperuricemic activity against potassium oxonate-induced hyperuricemic Sprague-Dawley rat model assessed as serum urea nitrogen level at 4 mg/kg, po pre-administered via gavage twice daily for 5 times followed by potassium oxonate injection for 1 hrs prior to last dose and measured after 3 hrs; assay type: functional; settings: time 123 hrs
Rattus norvegicus [10] = experiment: as §3, with “clearance of” for “urinary”, “measured per body surface area of 0.0311 m2” for “level”, “2” for “4”; assay type: functional; settings: time 123 hrs
Rattus norvegicus [11] = experiment: (§4) Anti-hyperuricemic activity against potassium oxonate-induced hyperuricemic Sprague-Dawley rat model assessed as fractional excretion of urate at 4 mg/kg, po pre-administered via gavage twice daily for 5 times followed by potassium oxonate injection for 1 hrs prior to last dose and measured after 3 hrs relative to control; assay type: functional; settings: time 123 hrs
Rattus norvegicus [12] = experiment: Anti-hyperuricemic activity against potassium oxonate-induced hyperuricemic Sprague-Dawley rat model assessed as serum urate level at 2 mg/kg, po pre-administered via gavage twice daily for 5 times followed by potassium oxonate injection for 1 hrs prior to last dose and measured after 3 hrs; assay type: functional; settings: time 123 hrs
Rattus norvegicus [13] = experiment: as §1, with “as clearance of” for “as urinary”, “creatinine measured per body surface area of 0.0311 m2” for “creatinine level”, “at 2” for “at 1”; assay type: functional; settings: time 123 hrs
[14] = Acute toxicity in mouse assessed as mortality at 50 g/Kg, IG measured for 14 days; settings: in vivo, po, 50000 mg/kg, 336 h, time 14 day
Rattus norvegicus [15] = experiment: Anti-hyperuricemic activity against potassium oxonate-induced hyperuricemic Sprague-Dawley rat model assessed as urinary urate at 2 mg/kg, po pre-administered via gavage twice daily for 5 times followed by potassium oxonate injection for 1 hrs prior to last dose and measured after 3 hrs; assay type: functional; settings: time 123 hrs
Rattus norvegicus [16] = experiment: as §3, with “assessed as increase in urinary urate” for “assessed as urinary urate”, “3 hrs relative to control” for “3 hrs”; assay type: functional; settings: time 123 hrs
Rattus norvegicus [17] = experiment: as §4, with “1” for “4”; assay type: functional; settings: time 123 hrs
Rattus norvegicus [18] = experiment: as §3, with “clearance of” for “urinary”, “measured per body surface area of 0.0311 m2” for “level”; assay type: functional; settings: time 123 hrs
Mus musculus [19] = experiment: Anti-hyperuricemic activity against uric acid-induced hyperuricemic Kunming mouse model assessed as decrease in URAT1 protein level in kidney at 2 to 8 mg/kg, pre-administered with uric acid for 3.5 days followed by compound administration via gavage twice a day for seven times by ELISA analysis; assay type: functional, organism-based; settings: dose 2-8 mg/kg, time 7.0 day
Homo sapiens = organism: Homo sapiens; experiment: Inhibition of uricase (unknown origin) using uric acid as substrate at 37.5 mg/L preincubated with compounds for 15 mins followed by uric acid addition
Rattus norvegicus [20] = experiment: Anti-hyperuricemic activity against potassium oxonate-induced hyperuricemic Sprague-Dawley rat model assessed as serum urea nitrogen level at 1 mg/kg, po pre-administered via gavage twice daily for 5 times followed by potassium oxonate injection for 1 hrs prior to last dose and measured after 3 hrs; assay type: functional; settings: time 123 hrs
Mus musculus [21] = experiment: Anti-hyperouricemic activity in uric acid-induced hyperuricemic Kunming mouse model assessed as decrease in serum uric acid level at 4 mg/kg, IG pre-administered with uric acid for 30 mins followed by compound treatment and measured after 2 hrs by phosphotungstic acid method; assay type: functional, organism-based
Rattus norvegicus [22] = experiment: Anti-hyperuricemic activity against potassium oxonate-induced hyperuricemic Sprague-Dawley rat model assessed as urinary urate at 1 mg/kg, po pre-administered via gavage twice daily for 5 times followed by potassium oxonate injection for 1 hrs prior to last dose and measured after 3 hrs; assay type: functional; settings: time 123 hrs
[23] = target: T1, Xanthine dehydrogenase/oxidase (Homo sapiens, UniProt P47989); experiment: Inhibition of XOD (unknown origin) using xanthine as substrate assessed as inhibition of uric acid generation at 100 mg/L preincubated for 15 mins followed by xanthine addition and measured by spectrophotometric analysis relative to control
Rattus norvegicus [24] = experiment: as §2, with “clearance of” for “serum”, “measured per body surface area of 0.0311 m2” for “level”; assay type: functional; settings: time 123 hrs
Rattus norvegicus [25] = experiment: Anti-hyperuricemic activity against potassium oxonate-induced hyperuricemic Sprague-Dawley rat model assessed as serum urea nitrogen level at 2 mg/kg, po pre-administered via gavage twice daily for 5 times followed by potassium oxonate injection for 1 hrs prior to last dose and measured after 3 hrs; assay type: functional; settings: time 123 hrs
Rattus norvegicus [26] = experiment: Anti-hyperuricemic activity against potassium oxonate-induced hyperuricemic Sprague-Dawley rat model assessed as serum creatinine level at 2 mg/kg, po pre-administered via gavage twice daily for 5 times followed by potassium oxonate injection for 1 hrs prior to last dose and measured after 3 hrs; assay type: functional; settings: time 123 hrs
[27] = target: T1, Xanthine dehydrogenase/oxidase; experiment: Inhibition of XOD (unknown origin) using xanthine as substrate assessed as inhibition of uric acid generation at 50 mg/L preincubated for 15 mins followed by xanthine addition and measured by spectrophotometric analysis relative to control
Rattus norvegicus [28] = experiment: as §3, with “glomerular load of” for “urinary”, “measured per body surface area of 0.0311 m2” for “level”; assay type: functional; settings: time 123 hrs
Mus musculus [29] = experiment: Anti-hyperouricemic activity in uric acid-induced hyperuricemic Kunming mouse model assessed as decrease in serum uric acid level at 2 to 8 mg/kg, IG pre-administered via gavage twice daily for 5 times followed by uric acid injection for 30 mins prior to last dose by phosphotungstic acid method; assay type: functional, organism-based; settings: dose 2-8 mg/kg, time 5.0 day
[30] = Toxicity in Kunming mouse assessed as decrease in serum uric acid level upto 250 mg/kg; assay type: organism-based; settings: in vivo
Rattus norvegicus [31] = experiment: Anti-hyperuricemic activity against potassium oxonate-induced hyperuricemic Sprague-Dawley rat model assessed as urinary urate level at 2 mg/kg, po pre-administered via gavage twice daily for 5 times followed by potassium oxonate injection for 1 hrs prior to last dose and measured after 3 hrs; assay type: functional; settings: time 123 hrs

T1 sequence (P47989 whole entry): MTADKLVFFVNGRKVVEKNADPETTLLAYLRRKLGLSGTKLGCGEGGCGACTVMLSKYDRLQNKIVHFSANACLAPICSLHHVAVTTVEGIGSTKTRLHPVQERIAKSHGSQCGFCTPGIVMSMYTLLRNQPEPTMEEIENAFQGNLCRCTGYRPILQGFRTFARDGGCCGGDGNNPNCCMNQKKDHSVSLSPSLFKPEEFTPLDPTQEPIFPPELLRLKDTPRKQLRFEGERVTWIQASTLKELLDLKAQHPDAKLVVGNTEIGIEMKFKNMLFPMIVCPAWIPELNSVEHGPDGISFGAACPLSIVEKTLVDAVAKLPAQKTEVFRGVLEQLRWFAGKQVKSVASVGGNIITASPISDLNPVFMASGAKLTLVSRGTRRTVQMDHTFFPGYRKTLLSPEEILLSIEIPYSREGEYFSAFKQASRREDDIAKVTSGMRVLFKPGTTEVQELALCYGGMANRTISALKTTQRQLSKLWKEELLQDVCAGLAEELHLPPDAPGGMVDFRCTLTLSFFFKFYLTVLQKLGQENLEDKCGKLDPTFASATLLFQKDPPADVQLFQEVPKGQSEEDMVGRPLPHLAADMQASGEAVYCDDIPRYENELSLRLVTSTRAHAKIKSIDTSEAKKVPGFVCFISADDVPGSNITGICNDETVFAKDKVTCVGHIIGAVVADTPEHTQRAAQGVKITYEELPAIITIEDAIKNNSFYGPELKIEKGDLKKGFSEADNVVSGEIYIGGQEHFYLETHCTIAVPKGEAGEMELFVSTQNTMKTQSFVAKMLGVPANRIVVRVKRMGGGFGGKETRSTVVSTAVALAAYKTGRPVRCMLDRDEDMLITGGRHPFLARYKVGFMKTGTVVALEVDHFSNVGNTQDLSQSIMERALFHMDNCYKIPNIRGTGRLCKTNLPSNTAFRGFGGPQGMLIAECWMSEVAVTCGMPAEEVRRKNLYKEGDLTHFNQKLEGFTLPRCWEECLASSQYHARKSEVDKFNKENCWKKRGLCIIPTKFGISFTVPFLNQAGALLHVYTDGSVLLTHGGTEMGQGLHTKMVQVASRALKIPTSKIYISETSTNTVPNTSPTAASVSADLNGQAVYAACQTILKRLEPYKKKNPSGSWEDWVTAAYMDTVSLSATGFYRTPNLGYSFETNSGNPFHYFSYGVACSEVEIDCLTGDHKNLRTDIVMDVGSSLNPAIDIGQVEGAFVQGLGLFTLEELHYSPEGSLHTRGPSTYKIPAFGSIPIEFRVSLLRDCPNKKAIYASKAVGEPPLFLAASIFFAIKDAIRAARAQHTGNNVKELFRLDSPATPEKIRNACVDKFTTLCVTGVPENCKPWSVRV

COc1c(O)cc2oc3cc(O)c(CC=C(C)C)c(O)c3c(=O)c2c1CC=C(C)C [MANGOSTIN]
Activity (Rattus norvegicus [1]): 0.9 mmol/L | Activity (Mus musculus [2]): inactive | Activity [3]: Non-Toxic | Activity (Rattus norvegicus [4]): 13.6 mL/min | Activity (Rattus norvegicus [5]): 55 µmol/L | Activity (Mus musculus [6]): Dose-Dependent Effect | Activity (Mus musculus [7]): 63% | Activity (Rattus norvegicus [8]): 2.4 mmol/L | Activity (Rattus norvegicus [9]): 10.1 mmol/L | Activity (Rattus norvegicus [10]): 11.2 mL/min | Activity (Rattus norvegicus [11]): 85% | Activity (Rattus norvegicus [12]): 236 µmol/L | Activity (Rattus norvegicus [13]): 15.4 mL/min | Activity [14]: Non-Toxic | Activity (Rattus norvegicus [15]): 465 µmol | Activity (Rattus norvegicus [16]): 46% | Activity (Rattus norvegicus [17]): 71% | Activity (Rattus norvegicus [18]): 14 mL/min | Activity (Mus musculus [19]): inactive | inhibition (Homo sapiens): 1.4% | Activity (Rattus norvegicus [20]): 10.7 mmol/L | Activity (Mus musculus [21]): Active | Activity (Rattus norvegicus [22]): 501 µmol | inhibition at 100 µg/mL [23]: 1.4% | Activity (Rattus norvegicus [24]): 18.6 mL/min | Activity (Rattus norvegicus [25]): 10.9 mmol/L | Activity (Rattus norvegicus [26]): 55.2 µmol/L | inhibition at 50 µg/mL [27]: 4.9% | Activity (Rattus norvegicus [28]): 3.7 µmol/min | Activity (Mus musculus [29]): Active | Activity [30]: Non-Toxic | Activity (Rattus norvegicus [31]): 2.6 mmol/L
